Data published in patent publication US7265130B2, “NPY Y5 antagonist” (Shionogi & Co., Ltd., priority 1999, dated 2007).

Tests used:
[1] = molecular target: T1, human NPY Y5 receptor (Homo sapiens, UniProt Q15761); assay: cAMP production inhibitory activity in CHO cells; format: cell-based; settings: against 50 nM NPY inhibition of forskolin stimulated cAMP, CHO cells expressing human NPY Y5 receptor
T1 construct: expressed in transfected cells
T1 sequence (Q15761 1-445): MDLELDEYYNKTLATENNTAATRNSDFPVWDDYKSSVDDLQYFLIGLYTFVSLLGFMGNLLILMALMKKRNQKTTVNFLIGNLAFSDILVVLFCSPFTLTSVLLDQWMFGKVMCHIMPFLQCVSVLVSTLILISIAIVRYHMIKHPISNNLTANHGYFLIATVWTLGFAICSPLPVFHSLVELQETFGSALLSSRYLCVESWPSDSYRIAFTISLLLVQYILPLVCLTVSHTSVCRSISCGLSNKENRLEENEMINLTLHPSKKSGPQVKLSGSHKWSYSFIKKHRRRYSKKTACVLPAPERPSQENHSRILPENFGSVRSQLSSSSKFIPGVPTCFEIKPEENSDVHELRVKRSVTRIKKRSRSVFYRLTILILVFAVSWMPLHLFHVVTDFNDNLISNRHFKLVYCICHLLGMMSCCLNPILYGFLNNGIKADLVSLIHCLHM
Method in brief: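 CHO cells expressing human NPY Y5 receptor preincubated 20 min at 37 °C with 2.5 mM IBMX, then with compound for 5 min. Stimulated with 50 nM NPY plus 10 μM forskolin for 30 min. Reaction stopped with 1N HCl; supernatant cAMP measured by EIA.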

[2] = molecular target: T1, human NPY Y5 receptor; assay: Affinity for NPY Y5 receptor ([125I] peptide YY binding, CHO cell membranes); settings: inhibition of specific [125I] peptide YY binding, membranes of CHO cells expressing NPY Y5 receptor
Method in brief: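 Membranes from CHO cells stably expressing human NPY Y5 receptor incubated with test compound and [125I] peptide YY (60 pM final) in HEPES-Hanks buffer with 0.1% BSA, pH 7.4, 25° C for 2 hours. Filter-bound radioactivity counted; non-specific binding with 200 nM peptide YY; IC50 against specific binding calculated.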

[3] = molecular target: T2, NPY Y2 receptor (Homo sapiens, UniProt P49146); assay: Affinity for NPY Y2 receptor (membranes from SMS-KAN cells); settings: membranes from Y2-expression cells (human neuroblastoma, SMS-KAN); read-out: Binding IC50 for NPY Y2 receptor
T2 construct: membranes prepared from Y2-expression cells (human neuroblastoma, SMS-KAN); endogenous in cells; host or cells: SMS-KAN human neuroblastoma cells (membranes)
T2 sequence (P49146 1-381): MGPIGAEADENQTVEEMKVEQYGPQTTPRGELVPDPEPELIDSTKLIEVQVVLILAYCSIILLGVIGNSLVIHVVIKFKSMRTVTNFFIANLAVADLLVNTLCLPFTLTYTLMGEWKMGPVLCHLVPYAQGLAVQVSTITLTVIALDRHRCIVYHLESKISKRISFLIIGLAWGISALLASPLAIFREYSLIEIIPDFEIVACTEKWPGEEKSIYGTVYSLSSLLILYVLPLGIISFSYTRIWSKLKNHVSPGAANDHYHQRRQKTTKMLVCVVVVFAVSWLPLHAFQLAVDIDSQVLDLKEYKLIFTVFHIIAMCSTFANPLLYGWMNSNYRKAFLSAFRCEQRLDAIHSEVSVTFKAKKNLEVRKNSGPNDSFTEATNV
Experimental: (§1) The membranes prepared from the above CHO cells expressing NPY Y5 receptor, the compound of the present invention and 30,000 cpm [^125I] peptide YY (60 pM of final concentration: Amersham) were incubated in the assay buffer (20 mM HEPES-Hanks buffer containing 0.1% bovine serum albumin, pH 7.4) at 25° C. for 2 hours, and then the mixture was filtered with a glassfilter GF/C treated with polyethyleneimine. After the glassfilter was washed with 50 mM Tris-HCl buffer (pH 7.4), the radioactivity on the filter was measured with a gamma counter. The non-specific binding was detected in the presence of 200 nM of peptide YY. The 50% inhibitory concentration of the test compound against the specific peptide YY binding (IC50 value) was calculated (Inui, A. et al. Endocrinology 131, 2090-2096 (1992)).
(§2) Using the membranes prepared from Y1-expression cells (human neuroblastoma, SK-N-MC) and the membranes prepared from Y2-expression cells (human neuroblastoma, SMS-KAN), the experiment was carried out in a similar way as Experiment 1 to determine the affinity for NPY Y1 receptor and NPY Y2 receptor.

[4] = molecular target: T3, NPY Y1 receptor (Homo sapiens, UniProt P25929); assay: Affinity for NPY Y1 receptor (membranes from SK-N-MC cells); settings: membranes from Y1-expression cells (human neuroblastoma, SK-N-MC); read-out: Binding IC50 for NPY Y1 receptor
T3 construct: membranes prepared from Y1-expression cells (human neuroblastoma, SK-N-MC); endogenous in cells; host or cells: SK-N-MC human neuroblastoma cells (membranes)
T3 sequence (P25929 1-384): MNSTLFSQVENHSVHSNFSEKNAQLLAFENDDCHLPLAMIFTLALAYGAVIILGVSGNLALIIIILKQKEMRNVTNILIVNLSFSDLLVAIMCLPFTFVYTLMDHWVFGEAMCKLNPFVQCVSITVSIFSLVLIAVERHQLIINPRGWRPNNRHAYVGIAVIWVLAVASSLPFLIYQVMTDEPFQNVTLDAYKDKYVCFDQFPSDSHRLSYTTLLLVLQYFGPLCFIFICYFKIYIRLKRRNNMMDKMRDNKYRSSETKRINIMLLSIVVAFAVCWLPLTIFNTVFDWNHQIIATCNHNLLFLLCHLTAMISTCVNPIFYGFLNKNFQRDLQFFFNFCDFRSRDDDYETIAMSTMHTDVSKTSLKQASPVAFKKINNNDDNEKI
Experimental: as §1, §2

| SMILES | IC50 [1] [nM] | IC50 [2] [nM] | IC50 [3] [nM] | IC50 [4] [nM] |
| --- | --- | --- | --- | --- |
| CC(C)(C)S(=O)(=O)NC1CCC(C(=O)Nc2ccc(Cl)c(Cl)c2)CC1 (stereo not drawn) [Ia-32] | 6.7 | 0.52 | ≥ 100000 | ≥ 100000 |
| COc1ccc(NC(=O)C2CCC(NS(=O)(=O)C(C)(C)C)CC2)cc1OC (stereo not drawn) [Ia-33] | 64 | 1.8 | ≥ 100000 | ≥ 100000 |
| C[C@@H]1C[C@H](C)CN(c2ccc(NC(=O)C3CCC(NS(=O)(=O)C(C)(C)C)CC3)cc2)C1 (stereo partly drawn) [Ia-37] | 3.8 | 0.73 | ≥ 100000 | ≥ 100000 |
| COc1ccc(NC(=O)C2CCC(NS(=O)(=O)C(C)(C)C)CC2)cc1Cl (stereo not drawn) [Ia-39] | 3.5 | 1.5 | ≥ 100000 | ≥ 100000 |
| C[C@@H]1CN(c2ccc(NC(=O)C3CCC(NS(=O)(=O)C(C)(C)C)CC3)cn2)C[C@H](C)O1 (stereo partly drawn) [Ia-40] | 9.3 | 2.2 | ≥ 100000 | ≥ 100000 |
| CC(C)S(=O)(=O)NC1CCC(C(=O)Nc2ccc(N3C[C@@H](C)O[C@@H](C)C3)nc2)CC1 (stereo partly drawn) [Ia-51] | 3.4 | 1.3 | ≥ 100000 | ≥ 100000 |
| CC(C)(C)S(=O)(=O)NC1CCC(C(=O)Nc2ccc3oc(=O)ccc3c2)CC1 (stereo not drawn) [Ia-62] | 29 | 1.1 | ≥ 100000 | ≥ 100000 |
| C[C@@H]1CN(c2ccc(NC(=O)N3CCC(NS(=O)(=O)C(C)(C)C)CC3)cc2)C[C@H](C)O1 [Ia-67] | 75 | 6.3 | ≥ 100000 | ≥ 100000 |
| C[C@@H]1CN(c2ccc(NC(=O)c3ccc(NS(=O)(=O)C(C)(C)C)cc3)cc2)C[C@H](C)O1 [Ia-124] | 22 | 1.1 | ≥ 100000 | ≥ 100000 |
| CC(C)(C)S(=O)(=O)Nc1ccc(C(=O)Nc2ccc3ncsc3c2)cc1 [Ia-126] | 58 | 2.3 | ≥ 100000 | ≥ 100000 |
| CC(C)(C)S(=O)(=O)Nc1ccc(C(=O)Nc2ccc(N3CC=CC3)cc2)cc1 [Ia-139] | 25 | 1.9 | ≥ 100000 | ≥ 100000 |
| CC(C)S(=O)(=O)NC1CCC(C(=O)Nc2ccc(C(F)(F)F)cc2)CC1 (stereo not drawn) [Ia-140] | 24 | 1 | ≥ 100000 | ≥ 100000 |
| CC(C)(C)S(=O)(=O)NC1CCC(C(=O)Nc2ccc(C(F)(F)F)cn2)CC1 (stereo not drawn) [Ia-178] | 16 | 4.6 | ≥ 100000 | ≥ 100000 |

The remaining molecules from weak to strong by IC50 [1], led by results:

| IC50 [1] [nM] | IC50 [2] [nM] | IC50 [3] [nM] | IC50 [4] [nM] | SMILES |
| --- | --- | --- | --- | --- |
| 24 | 1.7 | ≥ 100000 | ≥ 100000 | Cc1cc(NC(=O)C2CCC(NS(=O)(=O)C(C)C)CC2)ccc1N1C[C@@H](C)O[C@@H](C)C1 (stereo partly drawn) [Ia-50] |
| 18 | 1.4 | ≥ 100000 | ≥ 100000 | CC(C)(C)S(=O)(=O)NC1CCC(C(=O)Nc2ccc(OC3CCOCC3)cc2)CC1 (stereo not drawn) [Ia-200] |
| 11 | 3.8 | ≥ 100000 | ≥ 100000 | CC(C)(C)S(=O)(=O)NC1CCC(C(=O)Nc2ccc(Cl)cc2Cl)CC1 (stereo not drawn) [Ia-31] |
| 9 | 0.44 | ≥ 100000 | ≥ 100000 | Cc1cc(N2C[C@@H](C)O[C@@H](C)C2)ccc1NC(=O)C1CCC(NS(=O)(=O)C(C)C)CC1 (stereo partly drawn) [Ia-54] |
| 1.6 | 0.11 | ≥ 100000 | ≥ 100000 | CC(C)S(=O)(=O)NC1CCC(C(=O)Nc2cccc(OC3CCCC3)c2)CC1 (stereo not drawn) [Ia-199] |
